Data on 2 compounds can be found in patent US20030181449A1 (priority 2003, published 2003).

As a reminder, the melting point is the temperature, or range, at which the solid turns liquid. As a reminder, the Ki is the dissociation constant of the complex between target and ligand, obtained from inhibition or displacement.

Data set [1] relates to formalin-induced nociceptive behaviors in rats. As to the kind of experiment: Test B: Formalin test (formalin-induced paw flinches). Type of data set: in vivo, rat. As to conditions: dose 200 (unit not given), dosed three hours prior to formalin. An excerpt: The Formalin test is an assay that assesses the capacity of a compound to inhibit formalin-induced nociceptive behaviors in rats (D. Dubuisson, et al., Pain 4, 161-174 (1977); H. Wheeler-Aceto et al., Psychopharmacology 104, 3544 (1991); T. J. Coderre, et al., Pain 54, 43-50 (1993)). In the test, two distinctive phases of formalin-induced behaviors are observed. A first phase response, caused by acute nociception to the noxious chemical (formalin) injected into the paw, occurs between zero and five minutes. A quiescent period of 5 to 15 min post injection follows. After the quiescent period a second phase response, caused by sensitization of the central neurons in the dorsal horn, occurs after 15 minutes and lasts up to 60 minutes. Sensitization of the central neurons in the spine augments a noxious afferent input and causes a stronger pain barrage to be transmitted to the brain. Therefore, inhibition of the second phase response indicates a central mechanism of drug action.
The procedure for the formalin test is as follows: male rats are placed in a plexiglass chamber and observed for 30-45 min. to observe their baseline activity. Animals are either pretreated with vehicle or with different doses of a test compound. Animals are dosed with vehicle or test compound three hours prior to injection of 0.05 mL of sterile 1% formalin under the dorsal skin of a hind paw. The number of paw flinches (responses) during the first phase (0-5 min.) and the second phase (20-35 min.) are scored and recorded. Flinch response is compared with the mean score of a saline control group and calculated as percentage inhibition. The ED50 is the dose of compound which produces 50% inhibition of nociceptive response in the first or second phase response. First phase responses may be inhibited by compounds that act peripherally and by compounds that act centrally. Second phase response are inhibited by centrally active compounds.
Student's t-test was used for statistical analysis to determine the significance of compound effects. Data are reported as a dose that yielded a % inhibition of a response.

In data set [2] the test system is CCI rats (thermal hyperalgesia). As to the kind of experiment: Test C: Neuropathic pain model (Chronic Constriction Injury), thermal hyperalgesia, paw withdrawal latency. Type of data set: in vivo, rat. As to conditions: oral. An excerpt:
Test C: Neuropathic Pain Model (Chronic Constriction Injury):
The anti-hyperalgesic properties of a compound may be tested with the Chronic Constriction Injury (“CCI”) model. The test is a model for neuropathic pain associated with nerve injuries that can arise directly from trauma and compression, or indirectly from a wide range of diseases such as infection, cancer, metabolic conditions, toxins, nutritional deficiencies, immunological dysfunction, and musculoskeletal changes. In the model a unilateral peripheral hyperalgesia is produced in rats by nerve ligation (G. J. Bennett, et al., Pain 33, 87-107 (1988)).
Procedurally, Sprague-Dawley rats (250-350 g) are anesthetized with sodium pentobarbital and the common sciatic nerve is exposed at the level of the mid thigh by blunt dissection through the biceps femoris. A section of nerve (about 7 mm), proximal to the sciatic trifucation, is freed of tissue and ligated at four positions with chromic gut suture. The suture is tied with about 1 mm spacing between ligatures. The incision is closed in layers and the animals are allowed to recuperate. Thermal hyperalgesia is measured using a paw-withdrawal test (K. Hargreaves, et al., Pain 32, 77-88 (1988)). To perform the test, animals are habituated on an elevated glass floor. A radiant heat source is aimed at the mid-plantar hindpaw (sciatic nerve territory) through the glass floor with a 20 second cut-off used to prevent injury to the skin. The latencies for the withdrawal reflex in both hind paws are recorded.
Injured paws with ligated nerves show shorter paw withdrawal latencies compared to the uninjured or sham operated paws. Responses to test compounds are evaluated at different times after oral administration to determine the onset and duration of compound effect. When performing the test, groups of CCI rats receive either vehicle or the test compound orally three times daily for 5 days. Paw withdrawal latencies are measured each day 10 min before and 2 or 3 hr. after the first daily dose. Compound efficacy is expressed as mean percentage decrease of hyperalgesia compared to that of vehicle-treated animals, calculated as follows:
(Mean of vehicle group−Mean of compound group)×100/(Mean of vehicle group).
Data analysis was performed by the multiple means comparison test (Dunnett's test) and results are expressed and compound potencies are expressed as the MED (minimum effective dose), in mg/Kg/day, that yields a percent (%) decrease in hyperalgesia that is statistically significant.

The target in data set [3] is T1, NMDA receptor glycine site (Rattus norvegicus, UniProt P35439).
T1 construct: The rat brain membranes used in the experiments were obtained from Analytical Biological Services Inc; tissue Analytical Biological Services Inc; host or cells: rat brain membranes (cerebral cortex and hippocampus, male Sprague Dawley rats)
As to the kind of experiment: Test A: Inhibition of binding of [3H]-MDL105,519 to brain membranes. As to conditions: inhibition of 1.2 nM [3H]MDL105,519 binding, brain membranes (rat or human not given). An excerpt:
Test A: Inhibition of Binding of [^3H]-MDL105,519:
Binding of compounds to the NMDA receptor glycine site may be assessed by measuring the ability of test compounds to inhibit the binding of tritiated MDL105,519 to brain membranes bearing the receptor.
Briefly, fresh brain tissue including cerebral cortex and hippocampus from male Sprague Dawley rats was homogenized in 0.32 M sucrose and centrifuged at low speed to separate cellular membranes from other cellular components. The membranes were then washed 3 times using deionized water, followed by treatment with 0.04% Triton X-100. Finally, membranes were washed six times in 50 mM Tris citrate buffer, pH 7.4, and frozen at −80° C. until use.
[^3H]MDL105,519 (72 Ci/mmol) was purchased from Amersham. Cold MDL105,519 was purchased from Sigma/RBI. […] On the day of the experiment, brain membranes were thawed at room temperature and suspended in 50 mM tris acetate buffer, pH 7.4 (“TAB”). Seventy-five micro grams per milliliter protein (by using the BioRad dye) were used for competition binding. The experiments were carried out using 96-well plates. […] Non specific binding was determined by using 100 μM of unlabeled MDL105,519. […] After incubation, unbound [^3H]MDL105,519 was removed by filtration onto GF/B Unifilter plates using a Packard harvester. Filters were washed four times with ice cold TAB (total of 1.2 mL buffer). The plates were dried overnight at room temperature and bound radioactivity was measured on a Packard TopCount after the addition of 45 μL per well of the MICROSCINT O.
Human Brain Membranes: Human brain membranes were obtained from Analytical Biological Services Inc., and assays were performed as described for rat membranes.
Data analysis: Data was analyzed using a Microsoft Excel spreadsheet and GraphPad Prizm software and potency of compounds is expressed as the Ki (nM).

On to `Cc1cc(C)c(-n2nc(O)c3[nH]c4cc(Cl)ccc4c(=O)c3c2=O)c(C)c1` [Ex. 1, 7-Chloro-4-hydroxy-2-(2,4,6-trimethylphenyl)-1,2,5,10-tetrahydropyridazino[4,5-b]quinoline-1,10-dione], for which the melting point was in the range of 187 to 189 °C. Moreover, the “Test B First phase Dose (% Inh.): % inhibition of nociceptive response” value in data set [1] (first phase (0-5 min)) is reported as 200 (43%). Besides, in data set [1] (second phase (20-35 min)), the “Test B Second phase Dose (% Inh.): % inhibition of nociceptive response” value is 200 (54%). In data set [2] (at the MED), the “Test C (% Inh.): percent decrease in hyperalgesia” value came out at 82%. In addition, the “Test C MED (minimum effective dose)” value in data set [2] (three times daily for 5 days) was 15 mg/kg/day. The compound also displayed a Ki in data set [3] of 0.0399 µM.
Compound `CSc1ccccc1Cn1nc(O)c2nc3cc(Cl)ccc3c(O)c2c1=O` [Ex. 7, 7-Chloro-4,10-dihydroxy-2-[(2-methylthio)phenylmethyl]-2-hydropyridazino[4,5-b]quinoline-1-one] returned a melting point of 290 to 292 °C. The compound further displayed a Ki in data set [3] of 0.111 µM.
